In US11541132B2, “Radiolabeled compounds” (Hoffmann-La Roche Inc., priority 2017, dated 2023):
Where two headings read alike, the source gives them in different places.

Legend:
[1] = biological target: T1, native Aβ aggregates in human AD brain tissue sections (Homo sapiens, UniProt P05067); assay: Aβ in vitro displacement assay (selectivity counterscreen, [3H]Example 3 autoradiography); type: binding; conditions: read-out: sel. counterscreen PCT_INHIB AD @ 1 μM (% displacement of [3H]Example 3)
T1 construct: native Aβ aggregates in human AD brain tissue samples; from tissue; host or cells: human AD brain tissue sections

[2] = biological target: T2, native aSyn aggregates in A30P transgenic mouse brain sections (Homo sapiens, UniProt P37840, A30P); assay: aSyn in vitro displacement assay ([3H]Example-3 autoradiography); type: binding, mutant human aSyn gene); conditions: read-out: PCT_INHIB A30P @ 1 μM (% displacement of [3H]Example-3)
T2 construct: from tissue; host or cells: brain sections (midbrain and pons as ROI) of A30P transgenic mice, line B6.D2-Tg(Thy1-SNCA*30P)31Pjk

[3] = 1 μM compound, 3 nM [3H]Example 3, human AD brain sections
[4] = 1 μM compound, 3 nM [3H]Example-3, A30P transgenic mouse brain sections

T1 sequence (P05067 672-713 limits assumed): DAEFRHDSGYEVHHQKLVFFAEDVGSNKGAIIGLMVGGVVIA

SMILES	inhibition at 1 µM [1, 3]	inhibition at 1 µM [2, 4]	inhibition at 1 µM [1]	inhibition at 1 µM [2]
CC(C)(C)[Si](C)(C)OC(CF)COc1ccc(C(=O)Nc2ccc(N3CCN(c4ccccn4)CC3)cc2)cc1 (racemic) [Example 124, rac-4-(2-((tert-Butyldimethylsilyl)oxy)-3-fluoropropoxy)-N-(4-(4-(pyridin-2-yl)piperazin-1-yl)phenyl)benzamide]			91%	82%
O=C(Nc1ccc(N2CCN(c3ccccn3)CC2)cc1)c1ccc(OCC(O)CF)cc1 (racemic) [Example 125, rac-4-(3-Fluoro-2-hydroxypropoxy)-N-(4-(4-(pyridin-2-yl)piperazin-1-yl)phenyl)benzamide]	92%	82%		
CC(C)(C)[Si](C)(C)OC(CF)COc1ccc(C(=O)Nc2ccc(N3CCN(c4nccs4)CC3)cc2)cc1 (racemic) [Example 126, rac-4-(2-((tert-Butyldimethylsilyl)oxy)-3-fluoropropoxy)-N-(4-(4-(thiazol-2-yl)piperazin-1-yl)phenyl)benzamide]			89%	82%
CC(C)(C)[Si](C)(C)OC(CF)COc1ccc(C(=O)Nc2ccc(N3CCN(c4ccc(C#N)cc4)CC3)cc2)cc1 (racemic) [Example 127, rac-4-(2-((tert-Butyldimethylsilyl)oxy)-3-fluoropropoxy)-N-(4-(4-(4-cyanophenyl)piperazin-1-yl)phenyl)benzamide]			78%	81%
CC(C)(C)[Si](C)(C)OC(CF)COc1ccc(C(=O)Nc2ccc(N3CCN(c4cc(C#N)ccn4)CC3)cc2)cc1 (racemic) [Example 128, rac-4-(2-((tert-Butyldimethylsilyl)oxy)-3-fluoropropoxy)-N-(4-(4-(4-cyanopyridin-2-yl)piperazin-1-yl)phenyl)benzamide]			98%	92%
N#Cc1ccc(N2CCN(c3ccc(NC(=O)c4ccc(OCC(O)CF)cc4)cc3)CC2)nc1 (racemic) [Example 129, rac-N-(4-(4-(5-Cyanopyridin-2-yl)piperazin-1-yl)phenyl)-4-(3-fluoro-2-hydroxypropoxy)benzamide]	94%	86%		
COc1ccc(C(=O)Nc2ccc(N3CCN(c4ccccn4)CC3)nc2)cc1 [Example 24, 4-Methoxy-N-[6-[4-(2-pyridyl)piperazin-1-yl]-3-pyridyl]benzamide]		94%		

Second part, led by results:

inhibition at 1 µM [1, 3]	inhibition at 1 µM [2, 4]	SMILES	inhibition at 1 µM [1]	inhibition at 1 µM [2]
	81%	COc1ccc(C(=O)Nc2ccc(N3CCN(c4ccccn4)CC3)nc2)c(C)c1 [Example 19, 4-Methoxy-2-methyl-N-[6-[4-(2-pyridyl)piperazin-1-yl]-3-pyridyl]benzamide]		
	84%	CN1CCN(c2ccc(C(=O)Nc3ccc(N4CCN(c5ccccn5)CC4)nc3)cc2)CC1 [Example 22, 4-(4-Methylpiperazin-1-yl)-N-[6-[4-(2-pyridyl)piperazin-1-yl]-3-pyridyl]benzamide]		
	82%	Cc1ccc(C(=O)Nc2ccc(N3CCN(c4ccccn4)CC3)nc2)c(F)c1 [Example 23, 2-Fluoro-4-methyl-N-[6-[4-(2-pyridyl)piperazin-1-yl]-3-pyridyl]benzamide]		
	83%	Cc1ccc(C(=O)Nc2ccc(N3CCN(c4nccs4)CC3)cc2)nc1 [Example 25, 5-Methyl-N-[4-[4-(1,3-thiazol-2-yl)piperazin-1-yl]phenyl]pyridine-2-carboxamide]		
	93%	O=C(Nc1ccc(N2CCN(c3nccs3)CC2)cc1)c1ccc(N2CCOCC2)cc1 [Example 26, 4-Morpholin-4-yl-N-[4-[4-(1,3-thiazol-2-yl)piperazin-1-yl]phenyl]benzamide]		
	89%	Cc1ccc(C(=O)Nc2ccc(N3CCN(c4nccs4)CC3)cc2)cc1 [Example 27, 4-Methyl-N-[4-[4-(1,3-thiazol-2-yl)piperazin-1-yl]phenyl]benzamide]		
	82%	CN1CCN(c2ccc(C(=O)Nc3ccc(N4CCN(c5nccs5)CC4)cc3)cc2)CC1 [Example 28, 4-(4-Methylpiperazin-1-yl)-N-[4-[4-(1,3-thiazol-2-yl)piperazin-1-yl]phenyl]benzamide]		
